ChEMBL document CHEMBL1130110 (J Med Chem, 1997)

How the values were obtained:
[1] = molecular target: Glucagon receptor (Rattus norvegicus) (UniProt P30082); assay: Relative binding potency expressed as receptor binding IC50 for glucagon by receptor binding IC50 for compound
[2] = molecular target: Glucagon receptor (Rattus norvegicus) (UniProt P30082); assay: Percent stimulation of cAMP production over basal.; type: functional; set-up: concentration or dose not given beside the values

Glucagon receptor (Rattus norvegicus), sequence (P30082 whole entry): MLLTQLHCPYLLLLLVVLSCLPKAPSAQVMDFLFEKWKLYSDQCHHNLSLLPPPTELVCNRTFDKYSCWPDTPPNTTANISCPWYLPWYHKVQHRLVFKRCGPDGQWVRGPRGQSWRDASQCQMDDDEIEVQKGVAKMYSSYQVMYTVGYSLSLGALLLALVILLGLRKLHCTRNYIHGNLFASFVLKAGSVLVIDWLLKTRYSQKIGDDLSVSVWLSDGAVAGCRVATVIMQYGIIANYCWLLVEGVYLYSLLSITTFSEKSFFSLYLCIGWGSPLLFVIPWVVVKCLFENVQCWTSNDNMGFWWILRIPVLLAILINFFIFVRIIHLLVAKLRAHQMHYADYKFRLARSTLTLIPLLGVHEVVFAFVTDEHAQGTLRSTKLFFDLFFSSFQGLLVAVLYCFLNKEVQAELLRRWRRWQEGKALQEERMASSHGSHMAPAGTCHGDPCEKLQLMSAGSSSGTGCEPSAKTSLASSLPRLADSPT

Row | Activity [1] | Activity [2] | SMILES
1 | 1.2% | 0% | CSCC[C@@H](NC(=O)[C@@H](CC(C)C)NC(=O)[C@@H](Cc1c[nH]c2ccccc12)NC(=O)[C@@H](CCC(N)=O)NC(=O)[C@H](NC(=O)[C@@H](Cc1ccccc1)NC(=O)[C@@H](CC(=O)O)NC(=O)[C@@H](CCC(N)=O)NC(=O)[C@@H](C)NC(=O)[C@@H](CCCN=C(N)N)NC(=O)[C@@H](CCCN=C(N)N)NC(=O)[C@@H](CO)NC(=O)[C@@H](CC(=O)O)NC(=O)[C@@H](CC(C)C)NC(=O)[C@@H](Cc1ccc(O)cc1)NC(=O)[C@@H](CCCCN)NC(=O)[C@@H](CO)NC(=O)[C@@H](Cc1ccc(O)cc1)NC(=O)[C@@H](CC(=O)O)NC(=O)[C@@H](CO)NC(=O)[C@H](NC(=O)[C@H](NC(=O)CNC(=O)[C@@H](CCC(N)=O)NC(=O)[C@H](N)CO)[C@H](C)O)[C@H](C)O)C(C)C)C(=O)N[C@H](CC(N)=O)C(=O)N[C@@H](C(N)=O)[C@H](C)O
2 | 3.1% | 12% | CCCC[C@H](NC(=O)[C@H](NC(=O)CNC(=O)[C@@H](CCC(N)=O)NC(=O)[C@H](N)CO)[C@H](C)O)C(=O)N[C@@H](C(=O)N[C@H](CO)C(=O)N[C@H](CCC(=O)O)C(=O)N[C@H](Cc1ccc(O)cc1)C(=O)N[C@H](CO)C(=O)N[C@H](CCCCN)C(=O)N[C@H](Cc1ccc(O)cc1)C(=O)N[C@H](CC(C)C)C(=O)N[C@H](CC(=O)O)C(=O)N[C@H](CO)C(=O)N[C@H](CCCN=C(N)N)C(=O)N[C@H](CCCN=C(N)N)C(=O)N[C@H](C)C(=O)N[C@H](CCC(N)=O)C(=O)N[C@H](CC(=O)O)C(=O)N[C@H](Cc1ccccc1)C(=O)N[C@@H](C(=O)N[C@H](CCC(N)=O)C(=O)N[C@H](Cc1c[nH]c2ccccc12)C(=O)N[C@H](CC(C)C)C(=O)N[C@H](CCSC)C(=O)N[C@H](CC(N)=O)C(=O)N[C@@H](C(N)=O)[C@H](C)O)C(C)C)[C@H](C)O
3 | 1.5% | 0% | CSCC[C@@H](NC(=O)[C@@H](CC(C)C)NC(=O)[C@@H](Cc1c[nH]c2ccccc12)NC(=O)[C@@H](CCC(N)=O)NC(=O)[C@H](NC(=O)[C@@H](Cc1ccccc1)NC(=O)[C@@H](CC(=O)O)NC(=O)[C@@H](CCC(N)=O)NC(=O)[C@@H](C)NC(=O)[C@@H](CCCN=C(N)N)NC(=O)[C@@H](CCCN=C(N)N)NC(=O)[C@@H](CO)NC(=O)[C@@H](CC(=O)O)NC(=O)[C@@H](CC(C)C)NC(=O)[C@@H](Cc1ccc(O)cc1)NC(=O)[C@@H](CCCCN)NC(=O)[C@@H](CO)NC(=O)[C@@H](Cc1ccc(O)cc1)NC(=O)[C@@H](CCC(=O)O)NC(=O)[C@@H](CO)NC(=O)[C@H](NC(=O)[C@H](Cc1ccccc1)NC(=O)[C@H](NC(=O)CNC(=O)[C@@H](CCC(N)=O)NC(=O)[C@H](N)CO)[C@H](C)O)[C@H](C)O)C(C)C)C(=O)N[C@H](CC(N)=O)C(=O)N[C@@H](C(N)=O)[C@H](C)O
4 | 0.3% | 0% | CC(C)C[C@@H](NC(=O)[C@@H](Cc1ccc(O)cc1)NC(=O)[C@@H](CCCCN)NC(=O)[C@@H](CO)NC(=O)[C@@H](Cc1ccc(O)cc1)NC(=O)[C@@H](CC(=O)O)NC(=O)[C@@H](CO)NC(=O)[C@H](NC(=O)[C@H](NC(=O)CNC(=O)[C@@H](CCC(N)=O)NC(=O)[C@@H](CO)NC(=O)[C@H](N)Cc1c[nH]cn1)[C@H](C)O)[C@H](C)O)C(=O)N[C@H](CC(=O)O)C(=O)N[C@H](CO)C(=O)N[C@H](CCCN=C(N)N)C(=O)N[C@H](CCCN=C(N)N)C(=O)N[C@H](C)C(=O)N[C@H](CCC(N)=O)C(=O)N[C@H](CC(=O)O)C(=O)N[C@H](Cc1ccccc1)C(=O)N[C@@H](C(=O)N[C@H](CCC(N)=O)C(=O)N[C@H](Cc1c[nH]c2ccccc12)C(=O)N[C@H](CC(C)C)C(=O)N[C@H](CCS)C(=O)N[C@H](CC(N)=O)C(=O)N[C@@H](C=O)[C@H](C)O)C(C)C
